Marks after values point to notes of the source that are not given here.

The nature of one data set: Measurement of LogP values by HPLC on reversed phase columns (EEC directive 79/831 Annex V.A8). The data set is classed as physicochemical.
Conditions: not given
As to the method: Calibration was done with straight-chain alkan2-ones (with 3 to 16 carbon atoms) with known LogP values (measurement of LogP values using retention times with linear interpolation between successive alkanones). Lambda-max-values were determined using UV-spectra from 200 nm to 400 nm and the peak values of the chromatographic signals
Turning to `Cc1cc(C(=O)O)c(Oc2cccc(Cl)c2)nn1` [Compound 1-01], the LogP was 1.26^[a].

Regarding `Cc1cc(C(=O)O)c(Oc2cccc(C)c2F)nn1` [Compound 1-02], the LogP is 1.32^[a].

As to `Cc1cc(C(=O)O)c(Oc2cccc(C3(F)CC3)c2)nn1` [Compound 1-05], the LogP is 0.68^[a].

For `Cc1cc(C(=O)OC(C)C)c(Oc2cccc(C3(F)CC3)c2)nn1` [Compound 1-06], the LogP is 4.73^[a].

Regarding `Cc1ccc(CC(N)CON2C(=O)c3ccccc3C2=O)c(C)c1.O=C(O)C(F)(F)F` (centres unmarked) [Compound 2-01], the LogP was 1.55[a].

On to `O=C(NC(CON1C(=O)c2ccccc2C1=O)Cc1ccc(Cl)cc1Cl)c1cc(Cl)nnc1Oc1cccc(C2CC2)c1F` (centres unmarked) [Compound 3-02], for which the LogP is 5.27^[a].

As for `Cc1cc(C)cc(CC(N)CCl)c1.Cl` (centres unmarked) [Compound 13-02], the LogP is 1.32[a].

Turning to `Cc1ccc(C)c(CC(N)CCl)c1.Cl` (centres unmarked) [Compound 13-03], the LogP was 1.13[a].

Consider `Cc1ccc(CC(N)CCl)c(C)c1.Cl` (centres unmarked) [Compound 13-04], for which the LogP was 1.24[a].

For `Cc1ccc(CC(CCl)NC(=O)c2cc(C)nnc2Oc2cccc(Cl)c2)c(Br)c1` (centres unmarked) [Compound 14-01], the LogP is 4.51^[a].

`Cc1ccc(CC(CCl)NC(=O)c2cc(C)nnc2Oc2cccc(C)c2F)c(Cl)c1` (centres unmarked) [Compound 14-02]: the LogP is 4.43^[a].

Consider `Cc1cc(C)cc(CC(CCl)NC(=O)c2cc(C)nnc2Oc2cccc(C)c2F)c1` (centres unmarked) [Compound 14-04], for which the LogP was 4.47^[a].

Take `Cc1cc(C)cc(CC(CCl)NC(=O)c2cc(C)nnc2Oc2cccc(Cl)c2)c1` (centres unmarked) [Compound 14-05]: the LogP is 4.51^[a].

The same data set, now with this note: method [a]: LC-UV, acidic range, 0.1% formic acid in water and acetonitrile; compounds of formula (I-1), Table 1.
Consider `Cc1ccc(CC2CON=C(c3cc(Cl)nnc3Oc3cccc(Cl)c3)N2)c(Cl)c1` (racemic) [Compound I-017, (5RS)-3-[6-chloro-3-(3-chlorophenoxy)pyridazin-4-yl]-5-(2-chloro-4-methylbenzyl)-5,6-dihydro-4H-1,2,4-oxadiazine], for which the chromatographic logP was found to be 4.44.

As to `Clc1ccc(CC2CON=C(c3cc(Cl)nnc3Oc3cccc(C4(Cl)CC4)c3)N2)c(Cl)c1` (racemic) [Compound I-024, (5RS)-3-{6-chloro-3-[3-(1-chlorocyclopropyl)phenoxy]pyridazin-4-yl}-5-(2,4-dichlorobenzyl)-5,6-dihydro-4H-1,2,4-oxadiazine], the chromatographic logP was 4.93.

Staying with this data set, now noted: method [a]: LC-UV, acidic range, 0.1% formic acid; intermediates of formula (3), Table 7.
`Cc1ccc(CC(CON2C(=O)c3ccccc3C2=O)NC(=O)c2cc(C)nnc2Oc2cccc(Cl)c2)c(C)c1` (racemic) [Compound 3-01, 3-(3-chlorophenoxy)-N-{(2RS)-1-(2,4-dimethylphenyl)-3-[(1,3-dioxo-1,3-dihydro-2H-isoindol-2-yl)oxy]propan-2-yl}-6-methylpyridazine-4-carboxamide]: the chromatographic logP was 4.47.

The same data set, now with this note: method [a]: LC-UV, acidic range, 0.1% formic acid; intermediates of formula (4), Table 9.
Consider `Cc1ccc(CC(CON)NC(=O)c2cc(C)nnc2Oc2cccc(Cl)c2)c(C)c1` (racemic) [Compound 4-01, N-[(2RS)-1-(aminooxy)-3-(2,4-dimethylphenyl)propan-2-yl]-3-(3-chlorophenoxy)-6-methylpyridazine-4-carboxamide], for which the chromatographic logP stood at 2.64.

For `NOCC(Cc1ccc(Cl)cc1Cl)NC(=O)c1cc(Cl)nnc1Oc1cccc(C2CC2)c1F` (racemic) [Compound 4-02, 6-chloro-3-(3-cyclopropyl-2-fluoro-phenoxy)-N-[(1RS)-1-(aminooxymethyl)-2-(2,4-dichlorophenyl)ethyl]pyridazine-4-carboxamide], the chromatographic logP is 3.7.

Staying with this data set, now noted: method [a]: LC-UV, acidic range, 0.1% formic acid; intermediates of formula (14), Table 17.
For `Cc1ccc(CC(CCl)NC(=O)c2cc(C)nnc2Oc2cccc(Cl)c2)c(Cl)c1` (racemic) [Compound 14-03, N-[(2RS)-1-chloro-3-(2-chloro-4-methylphenyl)propan-2-yl]-3-(3-chlorophenoxy)-6-methylpyridazine-4-carboxamide], the chromatographic logP came out at 4.43.

Still in this data set, the particulars now being: method [a]: LC-UV, acidic range, 0.1% formic acid; intermediates of formula (15), Table 15.
The compound `Cc1ccc(CC(CCl)NC(=NO)c2cc(C)nnc2Oc2cccc(Cl)c2)c(Cl)c1` (racemic) [Compound 15-03] displayed a chromatographic logP of 3.78.

The values above are taken from patent publication US12543738B2 (Bayer Aktiengesellschaft, priority 2020, dated 2026).
